Numbers after ± are expanded uncertainties.
Legend:
[1] = 99 kPa, Liquid; for viscosity: Capillary tube (Ostwald / Ubbelohde) method; for speed of sound: Frequency=3 MHz, Sing-around technique in a fixed-path interferometer; for mass density: Vibrating tube method
[2] = refractive index (Na D-line) (dimensionless); settings: 99 kPa, Liquid, Standard Abbe refractometry
[3] = xn = mol fraction of the nth substance listed; settings: 99 kPa, Liquid, x2 = 0; for viscosity: Capillary tube (Ostwald / Ubbelohde) method; for speed of sound: Frequency=3 MHz, Sing-around technique in a fixed-path interferometer; for mass density: Vibrating tube method
[4] = refractive index (Na D-line) (dimensionless); xn = mol fraction of the nth substance listed; settings: 99 kPa, Liquid, Standard Abbe refractometry, x2 = 0

CC(=O)N(C)C [N,N-dimethylethanamide]
Settings | mass density, [1] [kg/m3] | refractive index, [2] | speed of sound, [1] [m/s] | viscosity, [1] [mPa·s]
283.15 K | 950.131 ± 0.21 | 1.44273 ± 0.00036 | 1516.8 ± 1.3 | 1.168 ± 0.014
298.15 K | 936.289 ± 0.21 | 1.43579 ± 0.00036 | 1453.7 ± 1.3 | 0.9299 ± 0.011
313.15 K | 922.429 ± 0.21 | 1.42901 ± 0.00036 | 1393.3 ± 1.3 | 0.7644 ± 0.0091

CCO [ethanol]
Settings | mass density, [1] [kg/m3] | refractive index, [2] | speed of sound, [1] [m/s] | viscosity, [1] [mPa·s]
283.15 K | 797.878 ± 0.19 | 1.36529 ± 0.00035 | 1194.5 ± 1.2 | 1.444 ± 0.017
298.15 K | 785.054 ± 0.19 | 1.35913 ± 0.00035 | 1143.2 ± 1.2 | 1.079 ± 0.012
313.15 K | 772.5 ± 0.19 | 1.35275 ± 0.00035 | 1092.4 ± 1.1 | 0.8235 ± 0.0096

CCO [ethanol] + CC(=O)N(C)C
Settings | mass density, [3] [kg/m3] | refractive index, [4] | speed of sound, [3] [m/s] | viscosity, [3] [mPa·s]
283.15 K | 797.878 ± 0.19 | 1.36529 ± 0.00035 | 1194.5 ± 1.2 | 1.444 ± 0.017
298.15 K | 785.054 ± 0.19 | 1.35913 ± 0.00035 | 1143.2 ± 1.2 | 1.079 ± 0.012
313.15 K | 772.5 ± 0.19 | 1.35275 ± 0.00035 | 1092.4 ± 1.1 | 0.8235 ± 0.0096

CO [methanol]
Settings | mass density, [1] [kg/m3] | refractive index, [2] | speed of sound, [1] [m/s] | viscosity, [1] [mPa·s]
283.15 K | 800.707 ± 0.19 | 1.33282 ± 0.00035 | 1152.7 ± 1.2 | 0.677 ± 0.0079
298.15 K | 786.611 ± 0.19 | 1.32636 ± 0.00035 | 1104.2 ± 1.1 | 0.5449 ± 0.0064
313.15 K | 772.31 ± 0.19 | 1.32013 ± 0.00035 | 1054.5 ± 1.1 | 0.4441 ± 0.0053

CO [methanol] + CC(=O)N(C)C
Settings | mass density, [3] [kg/m3] | refractive index, [4] | speed of sound, [3] [m/s] | viscosity, [3] [mPa·s]
283.15 K | 800.707 ± 0.19 | 1.33282 ± 0.00035 | 1152.7 ± 1.2 | 0.677 ± 0.0079
298.15 K | 786.611 ± 0.19 | 1.32636 ± 0.00035 | 1104.2 ± 1.1 | 0.5449 ± 0.0064
313.15 K | 772.31 ± 0.19 | 1.32013 ± 0.00035 | 1054.5 ± 1.1 | 0.4441 ± 0.0053
